Results: US10588316B2 (priority 2015, dated 2020)
“And” between values parts separate entries of the source, which are not always exact repeats. Equal values may be shown once. Read-outs that look alike come from different tables or passages of the source.

Key:
Fusarium graminearum = experiment: microbe, parasite or virus in culture; format: cell-based; conditions: for Average Fungal Colony Diameter F.g / Growth Inhibition Rate F.g: sensitive strains
Fusarium asiaticum = experiment: microbe, parasite or virus in culture; format: cell-based; conditions: for Average Fungal Colony Diameter F.a / Growth Inhibition Rate F.a: sensitive strains
[1] = test system: Fusarium graminearum and Fusarium asiaticum; experiment: organism not typed; format: cell-based
[2] = test system: carbendazim-resistant Fusarium asiaticum; experiment: microbe, parasite or virus in culture; format: cell-based; conditions: for DON Biosynthesis Inhibition Rate / Toxin Production Capability: Jinggangmycin + Tebuconazole 0 + 0.1 μg/ml
powdery mildew [3] = format: in vivo, wheat; conditions: dosage g ai./mu: c1 Jinggangmycin, c2 Tebuconazole of the line
wheat scab [4] = format: in vivo
leaf blight [5] = format: in vivo, wheat
powdery mildew [6] = format: in vivo, wheat
rust [7] = format: in vivo, wheat
wheat scab [8] = format: in vivo; remark: listed apart in the source
leaf blight [9] = format: in vivo, wheat; remark: listed apart in the source
powdery mildew [10] = format: in vivo, wheat; remark: listed apart in the source
rust [11] = format: in vivo, wheat; remark: listed apart in the source
[12] = format: in vivo, wheat
wheat scab [13] = format: in vivo; conditions: Preparation 50 g/mu; Tebuconazole 10 g ai. agent/mu
leaf blight [14] = format: in vivo, wheat; remark: listed apart in the source
powdery mildew [15] = format: in vivo, wheat; remark: listed apart in the source
rust [16] = format: in vivo, wheat; remark: listed apart in the source
[17] = format: in vivo, wheat; remark: listed apart in the source
wheat scab [18] = format: in vivo; conditions: Preparation 100 g/mu; Jinggangmycin 0, Tebuconazole 20 g ai. agent/mu
leaf blight [19] = format: in vivo, wheat; conditions: Preparation 100 g/mu; Jinggangmycin 0, Tebuconazole 20 g ai. agent/mu
powdery mildew [20] = format: in vivo, wheat; conditions: Preparation 100 g/mu; Jinggangmycin 0, Tebuconazole 20 g ai. agent/mu
rust [21] = format: in vivo, wheat; conditions: Preparation 100 g/mu; Jinggangmycin 0, Tebuconazole 20 g ai. agent/mu
wheat scab [22] = format: in vivo; conditions: Preparation 100 (mL/mu); Jinggangmycin 0, Tebuconazole 20 g ai. agent/mu
leaf blight [23] = format: in vivo, wheat; conditions: Preparation 100 (mL/mu); Jinggangmycin 0, Tebuconazole 20 g ai. agent/mu
powdery mildew [24] = format: in vivo, wheat; conditions: Preparation 100 (mL/mu); Jinggangmycin 0, Tebuconazole 20 g ai. agent/mu
rust [25] = format: in vivo, wheat; conditions: Preparation 100 (mL/mu); Jinggangmycin 0, Tebuconazole 20 g ai. agent/mu
wheat scab [26] = format: in vivo; remark: listed apart in the source
powdery mildew [27] = format: in vivo, wheat; remark: listed apart in the source
[28] = Tebuconazole 2.0 g ai. agent/mu
[29] = Tebuconazole 4.0 g ai. agent/mu
[30] = Tebuconazole 6.0 g ai. agent/mu
[31] = Tebuconazole 7.5 g ai. agent/mu
[32] = Tebuconazole 8.8 g ai. agent/mu
[33] = Tebuconazole 9.5 g ai. agent/mu
[34] = Tebuconazole 12.0 g ai. agent/mu
[35] = Tebuconazole 15.0 g ai. agent/mu
[36] = Tebuconazole 17.5 g ai. agent/mu
[37] = Tebuconazole 19.0 g ai. agent/mu
[38] = Preparation 15 g/mu, Tebuconazole 3 g ai. agent/mu
[39] = Preparation 37.5 g/mu, Tebuconazole 7.5 g ai. agent/mu
[40] = Preparation 50 g/mu, Tebuconazole 10 g ai. agent/mu
[41] = Preparation 22.5 g/mu, Tebuconazole 4.5 g ai. agent/mu
[42] = Preparation 30 g/mu, Tebuconazole 6 g ai. agent/mu

## Tebuconazole
Fusarium graminearum; F.g sensitive strains
  Median Effective Concentration (EC50) for Growth Inhibition: 0.096 µg/mL
Fusarium graminearum; Tebuconazole 0.02 μg/mL
  Average Fungal Colony Diameter F.g: 42 mm
  Growth Inhibition Rate F.g: 34.2%
Fusarium graminearum; Tebuconazole 0.078 μg/mL
  Average Fungal Colony Diameter F.g: 32 mm
  Growth Inhibition Rate F.g: 47.5%
Fusarium graminearum; Tebuconazole 0.3125 μg/mL
  Average Fungal Colony Diameter F.g: 21 mm
  Growth Inhibition Rate F.g: 72.1%
Fusarium graminearum; Tebuconazole 5.0 μg/mL
  Average Fungal Colony Diameter F.g: 9 mm
  Growth Inhibition Rate F.g: 88.0%
Fusarium asiaticum; F.a carbendazim-resistant strains
  Median Effective Concentration (EC50) for Growth Inhibition: 0.116 µg/mL
Fusarium asiaticum; F.a phenamacril-resistant strains
  Median Effective Concentration (EC50) for Growth Inhibition: 0.111 µg/mL
Fusarium asiaticum; F.a sensitive strains
  Median Effective Concentration (EC50) for Growth Inhibition: 0.102 µg/mL
Fusarium asiaticum; Tebuconazole 0.02 μg/mL
  Average Fungal Colony Diameter F.a: 43 mm
  Growth Inhibition Rate F.a: 32.9%
Fusarium asiaticum; Tebuconazole 0.078 μg/mL
  Average Fungal Colony Diameter F.a: 34 mm
  Growth Inhibition Rate F.a: 48.8%
Fusarium asiaticum; Tebuconazole 0.3125 μg/mL
  Average Fungal Colony Diameter F.a: 22 mm
  Growth Inhibition Rate F.a: 70.8%
Fusarium asiaticum; Tebuconazole 5.0 μg/mL
  Average Fungal Colony Diameter F.a: 9 mm
  Growth Inhibition Rate F.a: 88.0%
[1]; sensitive strains
  activity of tebuconazole relative to carbendazim (by EC50): about 4.5 times
  activity of tebuconazole relative to phenamacril (by EC50): about 1.5 times
[1]; tebuconazole 0.1 μg/ml alone
  inhibition rate on the hyphal growth of the head blight fungi: about 50%
[2]; 7 days
  DON Biosynthesis Inhibition Rate: 4.2%
  Toxin Production Capability: 87.42 μgDON/g by dry weight of hyphae
[2]; 14 days
  DON Biosynthesis Inhibition Rate: 0.6%
  Toxin Production Capability: 52.50 μgDON/g by dry weight of hyphae
[2]; tebuconazole 0.1 μg/ml, seven and fourteen days
  inhibitory effect on toxin biosynthesis capability versus blank control: does not have significant inhibitory effects
Powdery mildew [3]
  Disease Index Prevention Effect % Powdery Mildew: 72.61% and 76.19% and 66.32% and 39.46%
Wheat scab [4]; [28]
  Disease Index Prevention Effect % Head Blight: 12.9%
Wheat scab [4]; [29]
  Disease Index Prevention Effect % Head Blight: 25.6%
Wheat scab [4]; [30]
  Disease Index Prevention Effect % Head Blight: 42.5%
Wheat scab [4]; [31]
  Disease Index Prevention Effect % Head Blight: 56.7%
Wheat scab [4]; [32]
  Disease Index Prevention Effect % Head Blight: 61.5%
Wheat scab [4]; [33]
  Disease Index Prevention Effect % Head Blight: 65.4%
Wheat scab [4]; [34]
  Disease Index Prevention Effect % Head Blight: 68.4%
Wheat scab [4]; [35]
  Disease Index Prevention Effect % Head Blight: 71.8%
Wheat scab [4]; [36]
  Disease Index Prevention Effect % Head Blight: 73.9%
Wheat scab [4]; [37]
  Disease Index Prevention Effect % Head Blight: 74.2%
Leaf blight [5]; [28]
  Disease Index Prevention Effect % Leaf Blight: 14.5%
Leaf blight [5]; [29]
  Disease Index Prevention Effect % Leaf Blight: 19.2%
Leaf blight [5]; [30]
  Disease Index Prevention Effect % Leaf Blight: 29.5%
Leaf blight [5]; [31]
  Disease Index Prevention Effect % Leaf Blight: 71.2%
Leaf blight [5]; [32]
  Disease Index Prevention Effect % Leaf Blight: 73.1%
Leaf blight [5]; [33]
  Disease Index Prevention Effect % Leaf Blight: 74.2%
Leaf blight [5]; [34]
  Disease Index Prevention Effect % Leaf Blight: 76.5%
Leaf blight [5]; [35]
  Disease Index Prevention Effect % Leaf Blight: 78.9%
Leaf blight [5]; [36]
  Disease Index Prevention Effect % Leaf Blight: 80.3%
Leaf blight [5]; [37]
  Disease Index Prevention Effect % Leaf Blight: 81.2%
Powdery mildew [6]; [28]
  Disease Index Prevention Effect % Powdery Mildew: 15.4%
Powdery mildew [6]; [29]
  Disease Index Prevention Effect % Powdery Mildew: 28.5%
Powdery mildew [6]; [30]
  Disease Index Prevention Effect % Powdery Mildew: 36.4%
Powdery mildew [6]; [31]
  Disease Index Prevention Effect % Powdery Mildew: 58.2%
Powdery mildew [6]; [32]
  Disease Index Prevention Effect % Powdery Mildew: 60.5%
Powdery mildew [6]; [33]
  Disease Index Prevention Effect % Powdery Mildew: 65.2%
Powdery mildew [6]; [34]
  Disease Index Prevention Effect % Powdery Mildew: 76.5%
Powdery mildew [6]; [35]
  Disease Index Prevention Effect % Powdery Mildew: 74.5%
Powdery mildew [6]; [36]
  Disease Index Prevention Effect % Powdery Mildew: 76.4%
Powdery mildew [6]; [37]
  Disease Index Prevention Effect % Powdery Mildew: 81.2%
Rust [7]; [28]
  Disease Index Prevention Effect % Rust: 18.0%
Rust [7]; [29]
  Disease Index Prevention Effect % Rust: 32.1%
Rust [7]; [30]
  Disease Index Prevention Effect % Rust: 45.2%
Rust [7]; [31]
  Disease Index Prevention Effect % Rust: 71.5%
Rust [7]; [32]
  Disease Index Prevention Effect % Rust: 78.4%
Rust [7]; [33]
  Disease Index Prevention Effect % Rust: 80.5%
Rust [7]; [34]
  Disease Index Prevention Effect % Rust: 81.8%
Rust [7]; [35]
  Disease Index Prevention Effect % Rust: 85.6%
Rust [7]; [36]
  Disease Index Prevention Effect % Rust: 89.4%
Rust [7]; [37]
  Disease Index Prevention Effect % Rust: 92.8%
Wheat scab [8]; Tebuconazole 6 g ai. agent/mu
  Disease Index Prevention Effect % Head Blight: 53.4%
Wheat scab [8]; Tebuconazole 9 g ai. agent/mu
  Disease Index Prevention Effect % Head Blight: 65.8%
Wheat scab [8]; Tebuconazole 15 g ai. agent/mu
  Disease Index Prevention Effect % Head Blight: 70.4%
Wheat scab [8]; Tebuconazole 21 g ai. agent/mu
  Disease Index Prevention Effect % Head Blight: 76.8%
Leaf blight [9]; Tebuconazole 6 g ai. agent/mu
  Disease Index Prevention Effect % Leaf Blight: 64.5%
Leaf blight [9]; Tebuconazole 9 g ai. agent/mu
  Disease Index Prevention Effect % Leaf Blight: 70.1%
Leaf blight [9]; Tebuconazole 15 g ai. agent/mu
  Disease Index Prevention Effect % Leaf Blight: 72.4%
Leaf blight [9]; Tebuconazole 21 g ai. agent/mu
  Disease Index Prevention Effect % Leaf Blight: 73.5%
Powdery mildew [10]; Tebuconazole 6 g ai. agent/mu
  Disease Index Prevention Effect % Powdery Mildew: 62.4%
Powdery mildew [10]; Tebuconazole 9 g ai. agent/mu
  Disease Index Prevention Effect % Powdery Mildew: 70.8%
Powdery mildew [10]; Tebuconazole 15 g ai. agent/mu
  Disease Index Prevention Effect % Powdery Mildew: 76.4%
Powdery mildew [10]; Tebuconazole 21 g ai. agent/mu
  Disease Index Prevention Effect % Powdery Mildew: 81.6%
Rust [11]; Tebuconazole 6 g ai. agent/mu
  Disease Index Prevention Effect % Rust: 61.5%
Rust [11]; Tebuconazole 9 g ai. agent/mu
  Disease Index Prevention Effect % Rust: 72.6%
Rust [11]; Tebuconazole 15 g ai. agent/mu
  Disease Index Prevention Effect % Rust: 78.3%
Rust [11]; Tebuconazole 21 g ai. agent/mu
  Disease Index Prevention Effect % Rust: 86.1%
[12]; Tebuconazole 6 g ai. agent/mu
  Thousand Kernel Weight: 40.5 g
[12]; Tebuconazole 9 g ai. agent/mu
  Thousand Kernel Weight: 41.5 g
[12]; Tebuconazole 15 g ai. agent/mu
  Thousand Kernel Weight: 42 g
[12]; Tebuconazole 21 g ai. agent/mu
  Thousand Kernel Weight: 42.7 g
Wheat scab [13]
  Disease Index Prevention Effect % Head Blight: 72.4%
Leaf blight [14]; [38]
  Disease Index Prevention Effect % Leaf Blight: 65.4%
Leaf blight [14]; [39]
  Disease Index Prevention Effect % Leaf Blight: 68.5%
Leaf blight [14]; [40]
  Disease Index Prevention Effect % Leaf Blight: 64.5%
Powdery mildew [15]; [38]
  Disease Index Prevention Effect % Powdery Mildew: 68.1%
Powdery mildew [15]; [39]
  Disease Index Prevention Effect % Powdery Mildew: 73.5%
Powdery mildew [15]; [40]
  Disease Index Prevention Effect % Powdery Mildew: 82.4%
Rust [16]; [38]
  Disease Index Prevention Effect % Rust: 64.5%
Rust [16]; [39]
  Disease Index Prevention Effect % Rust: 75.6%
Rust [16]; [40]
  Disease Index Prevention Effect % Rust: 82.4%
[17]; [38]
  Thousand Kernel Weight: 40 g
[17]; [39]
  Thousand Kernel Weight: 41.5 g
[17]; [40]
  Thousand Kernel Weight: 40.8 g
Wheat scab [18]
  Disease Index Prevention Effect % Head Blight: 80.1%
Leaf blight [19]
  Disease Index Prevention Effect % Leaf Blight: 84.2%
Powdery mildew [20]
  Disease Index Prevention Effect % Powdery Mildew: 96.2%
Rust [21]
  Disease Index Prevention Effect % Rust: 98.5%
Wheat scab [22]
  Disease Index Prevention Effect % Head Blight: 84.6%
Leaf blight [23]
  Disease Index Prevention Effect % Leaf Blight: 83.6%
Powdery mildew [24]
  Disease Index Prevention Effect % Powdery Mildew: 88.2%
Rust [25]
  Disease Index Prevention Effect % Rust: 82.4%
Wheat scab [26]; [41]
  Disease Index Prevention Effect % Head Blight: 48.2%
Wheat scab [26]; [42]
  Disease Index Prevention Effect % Head Blight: 53.9%
Powdery mildew [27]; [38]
  Disease Index Prevention Effect % Powdery Mildew: 48.7%
Powdery mildew [27]; [41]
  Disease Index Prevention Effect % Powdery Mildew: 60.4%
Powdery mildew [27]; [42]
  Disease Index Prevention Effect % Powdery Mildew: 64.9%
Powdery mildew [27]; [39]
  Disease Index Prevention Effect % Powdery Mildew: 72.4%
